According to the NIST ThermoML archive (doi:10.1021/je050378i):
Numbers after ± are expanded uncertainties.

Assay: wn = mass fraction of the nth substance listed
Conditions: 101.33 kPa, Liquid

CC(C)(N)CO [2-amino-2-methylpropan-1-ol] + O
w1 = 0.3
Conditions	mass density [kg/m3]	viscosity [mPa·s]
298 K	997 ± 1.3	3.637 ± 0.11
303 K	994.2 ± 1.4	2.964 ± 0.091
308 K	991.4 ± 1.4	2.446 ± 0.075
313 K	988.4 ± 1.4	2.043 ± 0.063
318 K	985.4 ± 1.5	1.696 ± 0.053
323 K	982.1 ± 1.5	1.425 ± 0.044
328 K	978.8 ± 1.5	1.237 ± 0.039
333 K	975.5 ± 1.6	1.081 ± 0.034

C1CNCCN1 [piperazine] + O
Conditions	mass density, w1 = 0.0174 [kg/m3]	mass density, w1 = 0.0345 [kg/m3]	mass density, w1 = 0.0516 [kg/m3]	mass density, w1 = 0.0688 [kg/m3]	viscosity, w1 = 0.0174 [mPa·s]	viscosity, w1 = 0.0344 [mPa·s]	viscosity, w1 = 0.0516 [mPa·s]	viscosity, w1 = 0.0688 [mPa·s]
298 K	997.8 ± 1.1	998.5 ± 1.1	999.4 ± 1.1	1000.6 ± 1.1	0.957 ± 0.03	1.021 ± 0.031	1.09 ± 0.033	1.169 ± 0.036
303 K	996.5 ± 1.2	997.2 ± 1.2	998.1 ± 1.2	999 ± 1.2	0.861 ± 0.027	0.915 ± 0.028	0.965 ± 0.03	1.035 ± 0.032
308 K	995.1 ± 1.2	995.7 ± 1.2	996.5 ± 1.2	997.6 ± 1.2	0.776 ± 0.024	0.805 ± 0.025	0.865 ± 0.027	0.91 ± 0.028
313 K	993.2 ± 1.2	994.1 ± 1.2	994.7 ± 1.3	995.6 ± 1.2	0.681 ± 0.022	0.718 ± 0.023	0.763 ± 0.024	0.821 ± 0.026
318 K	991.4 ± 1.3	992.2 ± 1.3	992.5 ± 1.3	993.8 ± 1.3	0.623 ± 0.02	0.652 ± 0.021	0.703 ± 0.022	0.731 ± 0.023
323 K	989.3 ± 1.3	990.2 ± 1.3	990.4 ± 1.3	991.4 ± 1.3	0.573 ± 0.018	0.592 ± 0.019	0.624 ± 0.02	0.663 ± 0.021
328 K	986.7 ± 1.4	987.4 ± 1.4	988 ± 1.4	989.1 ± 1.4	0.543 ± 0.018	0.543 ± 0.018	0.569 ± 0.018	0.604 ± 0.019
333 K	984.2 ± 1.4	984.5 ± 1.4	985.7 ± 1.4	987.4 ± 1.4	0.488 ± 0.016	0.505 ± 0.017	0.523 ± 0.017	0.546 ± 0.018
